Laboratory results published in patent US20160257697A1, “THIOPHENE-SUBSTITUTED TETRACYCLIC COMPOUNDS AND METHODS OFUSE THEREOF FOR THE TREATMENT OF VIRAL DISEASES” (priority 2013, published 2016).
Like-named read-outs stand apart in the source and are kept apart here.

Key:
Assay in all cases: microbe, parasite or virus in culture
Assay type in all cases: cell-based, Hepatitis C virus (HCV)
HCV replicon 1B = conditions: Replicon Assay B
HCV replicon 1AQ30D = conditions: Replicon Assay B
HCV replicon 2B = conditions: Replicon Assay A
Method in brief: (§1)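 HCV RNA levels were calculated from Ct values (minus intercept, divided by slope) of a Neo primer/probe standard curve, with cyclophilin quantified the same way. Cells were seeded at 2000/well and incubated with compound for 3 days in 5% serum and 0.5% DMSO.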

HCV replicon 1A = conditions: Replicon Assay A
Method in brief: as §1

HCV replicon 1AY93H = conditions: Replicon Assay A
Method in brief: as §1

[1] = Hepatitis C virus, read-out: 1A Q30D IC50 (nM), replicon 1AQ30D
[2] = read-out: 1A Y93H IC50, replicon 1AY93H
[3] = read-out: 1A Q30D IC50, replicon 1AQ30D
[4] = read-out: 1A Q30D IC50, HCV replicon 1A Q30D
[5] = read-out: 2B IC50, HCV replicon 2B
[6] = read-out: 1A Y93H IC50, HCV replicon 1A Y93H
[7] = Hepatitis C virus, read-out: 2B IC50 (nM), replicon 2B
[8] = Hepatitis C virus, read-out: 1A Y93H IC50 (nM), replicon 1AY93H
[9] = Hepatitis C virus, HCV replicon 1B
[10] = Hepatitis C virus, read-out: 1A Q30D IC50, HCV replicon 1A Q30D

Row | Compound | IC50 (HCV replicon 1B; Hepatitis C virus, replicon 1B) | IC50 (HCV replicon 1AQ30D; [1]) | IC50 (HCV replicon 2B; read-out: 2B IC50, replicon 2B) | IC50 (HCV replicon 1A; Hepatitis C virus, replicon 1A) | IC50 (HCV replicon 1AY93H; [2]) | IC50 (HCV replicon 1B; replicon 1B) | IC50 (HCV replicon 1AQ30D; [3]) | IC50 (HCV replicon 1A; replicon 1A) | also measured
1 | COC(=O)NC(C(=O)N1CCC[C@H]1c1ncc(-c2ccc3c(c2)cc2n3C(c3ccc(C4CC4)s3)Oc3cc(-c4cnc([C@@H]5CCCN5C(=O)[C@@H](NC(=O)OC)C(C)C)[nH]4)cc(F)c3-2)[nH]1)C1CN(C(=O)OC)C1 (single isomer, unassigned) [Compound 226] | 3.6 pM | 0.13 nM | 0.025 nM | 2.6 pM | 0.009 nM | – | – | – | –
2 | COC(=O)N[C@H](C(=O)N1CCC[C@H]1c1nc(-c2cc(F)c3c(c2)OC(c2ccc(C)s2)n2c-3cc3cc(-c4cnc([C@@H]5CCCN5C(=O)[C@@H](NC(=O)OC)C5CCOCC5)[nH]4)ccc32)c[nH]1)C(C)C (stereo partly shown) [Compound 59] | – | – | 0.007 nM | – | 0.004 nM | 3.5 pM | 0.018 nM | 1.3 pM | –
3 | COC(=O)N[C@H](C(=O)N1CCC[C@H]1c1ncc(-c2cc(F)c3c(c2)OC(c2cc4c(s2)CCC4)n2c-3cc3cc(-c4cnc([C@@H]5C[C@H]6C[C@H]6N5C(=O)[C@@H](NC(=O)OC)C5CCOCC5)[nH]4)ccc32)[nH]1)C(C)C (single isomer, unassigned) [Compound 542] | – | – | – | – | – | – | – | – | IC50 (HCV replicon 1B; HCV replicon 1B): 3.71 pM; IC50 (HCV replicon 1AQ30D; [4]): 0.162 nM; IC50 (HCV replicon 2B; [5]): 0.0335 nM; IC50 (HCV replicon 1A; HCV replicon 1A): 3.42 pM; IC50 (HCV replicon 1AY93H; [6]): 0.00855 nM
4 | COC(=O)N[C@H](C(=O)N1CCC[C@H]1c1ncc(-c2ccc3c(c2)cc2n3C(c3ccc(C4CC4)s3)Oc3cc(-c4cnc([C@@H]5CCCN5C(=O)[C@@H](NC(=O)OC)C5CCOCC5)[nH]4)cc(C)c3-2)[nH]1)C(C)C (single isomer, unassigned) [Compound 123] | – | – | 0.064 nM | – | 0.59 nM | 3.1 pM | 0.38 nM | 1.2 pM | –
5 | COC(=O)NC(C(=O)N1CCC[C@H]1c1ncc(-c2ccc3c(c2)cc2n3C(c3ccc(C4CC4)s3)Oc3cc(-c4cnc([C@@H]5CCCN5C(=O)[C@@H](NC(=O)OC)C(C)C)[nH]4)cc(F)c3-2)[nH]1)C1(F)CCOCC1 (single isomer, unassigned) [Compound 364] | 2.3 pM | 0.498 nM | – | 2 pM | – | – | – | – | IC50 (HCV replicon 2B; [7]): 0.0872 nM; IC50 (HCV replicon 1AY93H; [8]): 0.0869 nM
6 | COC(=O)NC(C(=O)N1CCC[C@H]1c1ncc(-c2ccc3c(c2)cc2n3C(c3ccc(C4CC4)s3)Oc3cc(-c4cnc([C@@H]5CCCN5C(=O)[C@@H](NC(=O)OC)C(C)C)[nH]4)cc(F)c3-2)[nH]1)C1C2COCC21 (single isomer, unassigned) [Compound 339] | 2.2 pM | 0.133 nM | 0.0292 nM | – | 0.0047 nM | – | – | 2 pM | –
7 | COC(=O)N[C@H](C(=O)N1CCC[C@H]1c1ncc(-c2cc(F)c3c(c2)OC(c2ccsc2)n2c-3cc3cc(-c4cnc([C@@H]5CCCN5C(=O)[C@@H](NC(=O)OC)C(C)C)[nH]4)ccc32)[nH]1)C(C)C (single isomer, unassigned) [Compound 317] | 1.6 pM | 2.58 nM | 0.94 nM | 1.2 pM | 0.11 nM | – | – | – | –
8 | COC(=O)N[C@H](C(=O)N1CCC[C@H]1c1nc(-c2cc(F)c3c(c2)OC(c2ccc(C4CC4)s2)n2c-3cc3cc(-c4c[nH]c([C@@H]5C[C@H]6C[C@H]6N5C(=O)[C@@H](NC(=O)OC)C(C)C)n4)ccc32)c[nH]1)C(C)C (single isomer, unassigned) [Compound 721] | – | – | – | – | – | – | – | – | IC50 (HCV replicon 1B; [9]): 1.5 pM; IC50 (HCV replicon 1AQ30D; [10]): 0.17 nM; IC50 (HCV replicon 2B; [5]): 0.05 nM; IC50 (HCV replicon 1A; HCV replicon 1A): 1.5 pM; IC50 (HCV replicon 1AY93H; [6]): 0.0045 nM
9 | COC(=O)NC(C(=O)N1CCC[C@H]1c1ncc(-c2ccc3c(c2)cc2n3C(c3ccc(CC4CC4)s3)Oc3cc(-c4cnc([C@@H]5CCCN5C(=O)[C@@H](NC(=O)OC)C(C)C)[nH]4)cc(F)c3-2)[nH]1)C1C[C@@H](C)O[C@@H](C)C1 (single isomer, unassigned) [Compound 375] | 2.6 pM | 0.315 nM | – | 1.5 pM | – | – | – | – | IC50 (HCV replicon 2B; [7]): 0.024 nM; IC50 (HCV replicon 1AY93H; [8]): 0.0269 nM
10 | COC(=O)NC(C(=O)N1CCC[C@H]1c1ncc(-c2ccc3c(c2)cc2n3C(c3ccc(C4CCCC4)s3)Oc3cc(-c4cnc([C@@H]5CCCN5C(=O)[C@@H](NC(=O)OC)C(C)C)[nH]4)cc(F)c3-2)[nH]1)C1C[C@@H](C)O[C@@H](C)C1 (single isomer, unassigned) [Compound 657] | – | – | – | – | – | – | – | – | IC50 (HCV replicon 1B; HCV replicon 1B): 3.7 pM; IC50 (HCV replicon 1AQ30D; [4]): 1.14 nM; IC50 (HCV replicon 2B; [5]): 0.0941 nM; IC50 (HCV replicon 1A; HCV replicon 1A): 2.5 pM; IC50 (HCV replicon 1AY93H; [6]): 0.105 nM
11 | COC(=O)NC(C(=O)N1CCC[C@H]1c1ncc(-c2cc(F)c3c(c2)OC(c2ccc(C)s2)n2c-3cc3cc(-c4cnc([C@@H]5CCCN5C(=O)[C@@H](NC(=O)OC)C5CCOCC5)[nH]4)ccc32)[nH]1)C(C)(C)F (single isomer, unassigned) [Compound 106] | 1.5 pM | – | – | 2.1 pM | – | – | 0.03 nM | – | IC50 (HCV replicon 2B; [7]): 0.35 nM; IC50 (HCV replicon 1AY93H; [8]): 0.16 nM
12 | COC(=O)NC(C(=O)N1[C@@H]2C[C@@H]2C[C@H]1c1ncc(-c2ccc3c(c2)cc2n3C(c3ccc(C4CC4)s3)Oc3cc(-c4cnc([C@@H]5CCCN5C(=O)[C@@H](NC(=O)OC)C(C)C)[nH]4)cc(F)c3-2)[nH]1)C1C[C@@H](C)O[C@@H](C)C1 (single isomer, unassigned) [Compound 273] | – | – | 0.74 nM | – | 0.18 nM | 2 pM | 2.06 nM | 1.5 pM | –
13 | COC(=O)NC(C(=O)N1CCC[C@H]1c1ncc(-c2ccc3c(c2)cc2n3C(c3ccc(C4CC4)s3)Oc3cc(-c4cnc([C@@H]5CCCN5C(=O)[C@@H](NC(=O)OC)C(C)C)[nH]4)cc(F)c3-2)[nH]1)C1CCO[C@H](C)C1 (single isomer, unassigned) [Compound 135] | – | – | 0.006 nM | – | 0.004 nM | 3 pM | 0.027 nM | 2.4 pM | –
14 | COC(=O)NC(C(=O)N1[C@@H]2C[C@@H]2C[C@H]1c1ncc(-c2ccc3c(c2)cc2n3C(c3ccc(C4CC4)s3)Oc3cc(-c4cnc([C@@H]5CCCN5C(=O)[C@@H](NC(=O)OC)C(C)C)[nH]4)cc(F)c3-2)[nH]1)C1C[C@@H](C)O[C@@H](C)C1 (single isomer, unassigned) [Compound 272] | – | – | 2.75 nM | – | 1 nM | 3.3 pM | 2.39 nM | 2.7 pM | –
15 | COC(=O)NC(C(=O)N1CCC[C@H]1c1ncc(-c2ccc3c(c2)cc2n3C(c3cc4ccccc4s3)Oc3cc(-c4cnc([C@@H]5CCCN5C(=O)[C@@H](NC(=O)OC)C5CCOCC5)[nH]4)cc(F)c3-2)[nH]1)C(C)(C)F (single isomer, unassigned) [Compound 184] | – | – | 0.076 nM | – | 0.16 nM | 2 pM | 0.21 nM | 2 pM | –
16 | CCc1ccc(C2Oc3cc(-c4cnc([C@@H]5CCCN5C(=O)[C@@H](NC(=O)OC)C(C)C)[nH]4)cc(C)c3-c3cc4cc(-c5cnc([C@@H]6CCCN6C(=O)[C@@H](NC(=O)OC)C6CCOC(C)(C)C6)[nH]5)ccc4n32)s1 (single isomer, unassigned) [Compound 547] | – | – | – | – | – | – | – | – | IC50 (HCV replicon 1B; [9]): 7 pM; IC50 (HCV replicon 1AQ30D; [10]): 0.96 nM; IC50 (HCV replicon 2B; Hepatitis C virus, read-out: 2B IC50, HCV replicon 2B): 0.012 nM; IC50 (HCV replicon 1A; Hepatitis C virus, HCV replicon 1A): 7 pM; IC50 (HCV replicon 1AY93H; Hepatitis C virus, read-out: 1A Y93H IC50, HCV replicon 1A Y93H): 0.13 nM
17 | COC(=O)N[C@H](C(=O)N1CCC[C@@H]1c1ncc(-c2ccc3c(c2)cc2n3C(c3ccc(C4CC4)s3)Oc3cc(-c4cnc([C@@H]5CCCN5C(=O)[C@H](NC(=O)OC)C(C)(C)F)[nH]4)cc(F)c3-2)[nH]1)C1C[C@@H](C)O[C@@H](C)C1 (stereo partly shown) [Compound 380] | 2.4 pM | 0.022 nM | – | 3 pM | – | – | – | – | IC50 (HCV replicon 2B; [7]): 0.0056 nM; IC50 (HCV replicon 1AY93H; [8]): 0.0052 nM
